# Where two headings read alike, the source gives them in different places. * marks the point of attachment. Acm = CC(=O)NC*
# Assays:
# [1] = system: plasmid nucleic acid pRSVLuc; experiment: Surface plasmon resonance (BIAcore) binding kinetics of peptides/conjugates to immobilized biotinylated plasmid DNA; settings: for ka: apparent rate constant for association; for Kd: read-out: equilibrium dissociation constant KD
# [2] = system: cells; experiment: Transfection efficiency / activity of complexes (general statement); assay type: cell-based; settings: related to affinity for nucleic acid
"Kd ([1]; approximate value, unit inferred) [nM]",association reaction ([1]; shape of association kinetics),Substance,"ka ([1]; SPR, PBS, 25° C.) [M⁻¹ s⁻¹]","kd ([1]; apparent rate constant for dissociation, SPR, PBS, 25° C.) [s⁻¹]",apparent dissociation constant kd ([1]; approximate values),Kd ([1]; approximate values) [nM],transfection efficiency [2]
–,–,NH2-KKSPKKAKKPAAKKSPKKAKKPAYC(Acm)-COOH (H-KKSPKKAKKPAAKKSPKKAKKPAYC(Acm)-OH; SMILES CC(=O)NCSC[C@H](NC(=O)[C@H](Cc1ccc(O)cc1)NC(=O)[C@H](C)NC(=O)[C@@H]1CCCN1C(=O)[C@H](CCCCN)NC(=O)[C@H](CCCCN)NC(=O)[C@H](C)NC(=O)[C@H](CCCCN)NC(=O)[C@H](CCCCN)NC(=O)[C@@H]1CCCN1C(=O)[C@H](CO)NC(=O)[C@H](CCCCN)NC(=O)[C@H](CCCCN)NC(=O)[C@H](C)NC(=O)[C@H](C)NC(=O)[C@@H]1CCCN1C(=O)[C@H](CCCCN)NC(=O)[C@H](CCCCN)NC(=O)[C@H](C)NC(=O)[C@H](CCCCN)NC(=O)[C@H](CCCCN)NC(=O)[C@@H]1CCCN1C(=O)[C@H](CO)NC(=O)[C@H](CCCCN)NC(=O)[C@@H](N)CCCCN)C(=O)O) [NBC8],50000,0.06248,approximately 1×10^-2 sec^-1,~1000,–
~0.5,clear biphasic kinetics,NH2-TKKAWKKAEKKAAKKCGVSAKKAAKKAWKKA-CONH2 (H-TKKAWKKAEKKAAKKCGVSAKKAAKKAWKKA-NH2) [NBC11],20700,–,approximately 1.6×10^-4 sec^-1,–,not completely deleterious to transfection
